The values below come from ChEMBL document CHEMBL3872220, “Amphiphilic xanthones as a potent chemical entity of anti-mycobacterial agents with membrane-targeting properties” (Eur J Med Chem, 2016).

Assay type in all cases: functional
For test [1], the system named is Mycobacterium tuberculosis variant bovis BCG. Briefly: Bactericidal activity against Mycobacterium bovis BCG ATCC 35734 assessed as log reduction in bacterial colonies at 2 times MIC measured at 9 hrs by time-kill assay.
The subject of test [2] is Mycobacterium tuberculosis. Briefly: Antimycobacterial activity against isoniazid, streptomycin and ethambutol resistant Mycobacterium tuberculosis clinical isolate 01;104 assessed as reduction in 2 log10 bacterial colonies measured after 14 to 21 days by agar dilution method.
The subject of test [3] is Mycobacterium tuberculosis. In words: Antimycobacterial activity against rifampicin, streptomycin and ethambutol resistant Mycobacterium tuberculosis clinical isolate 01;005 assessed as reduction in 2 log10 bacterial colonies measured after 14 to 21 days by agar dilution method.

Converted amounts (≈) assume the structure as drawn.

In the case of `CCCN(CCC)CCCCOc1cc2oc3cc(OCCCCN(CCC)CCC)c(OC)c(CC=C(C)C)c3c(=O)c2c(O)c1CC=C(C)C`, the Activity in test [1] was 2.8.

As to `COc1c(OCCCCN2CCOCC2)cc2oc3cc(OCCCCN4CCOCC4)c(CC=C(C)C)c(O)c3c(=O)c2c1CC=C(C)C`, the MIC in test [2] was found to be 4 µg/mL (≈ 5.77 µM); in test [3], 8 µg/mL (≈ 11.5 µM).

As for `CCN(CC)CCCCOc1cc2oc3cc(OCCCCN(CC)CC)c(OC)c(CC=C(C)C)c3c(=O)c2c(O)c1CC=C(C)C`, the MIC in test [2] amounted to 4 µg/mL (≈ 6.02 µM); in test [3] it was 8 µg/mL (≈ 12 µM).
